Measurements published in paper doi:10.1101/2024.01.18.576231v1 (biorxiv, 2024).

Experiments:
Assay type in all cases: binding
[1] = molecular target: T1, CRBN_ΔHBD (Homo sapiens, UniProt Q96SW2, INS193GNGNSG/DEL194-248); experiment: fluorescence polarization, displacement of Cy5-thalidomide; details: […] Cy5-thalidomide tracer, pH […]
[2] = molecular target: CRBN:DDB1 complex (Homo sapiens, UniProt Q96SW2); experiment: fluorescence polarization, direct titration; details: labelled compound; […] tracer, pH […], RT
[3] = molecular target: T1, CRBN_ΔHBD; experiment: fluorescence polarization, direct titration; details: labelled compound; […] tracer, pH […], RT
[4] = molecular target: CRBN_TBD (Homo sapiens, UniProt Q96SW2); experiment: fluorescence polarization, direct titration; details: labelled compound; […] tracer, pH […], RT

Compound | EC50 [1] [nM] | further results
COc1cccc2c1CN(C1CCC(=O)NC1=O)C2=O (stereo not shown) [Z2508929002] | 223 | 
Nc1c(O)ccc2c1C(=O)N(C1CCC(=O)NC1=O)C2=O (stereo not shown) [Z3269026162] | 187 | 
O=C1CCC(N2Cc3c(C=C4CCOC4)cccc3C2=O)C(=O)N1 (stereo not shown) [Z4223332422] | 193 | 
NC(=O)N1CCC(C#Cc2cccc3c2CN(C2CCC(=O)NC2=O)C3=O)CC1 (stereo not shown) [Z4999915373] | 218 | 
Cc1nn(CCO)cc1CNc1ccc2c(c1)CN(C1CCC(=O)NC1=O)C2=O (stereo not shown) [Z5000207375] | 257 | 
COc1nccnc1CNc1ccc2c(c1)CN(C1CCC(=O)NC1=O)C2=O (stereo not shown) [Z5000208878] | 197 | 
COc1cc(N)cnc1-c1ccc2c(c1)CN(C1CCC(=O)NC1=O)C2=O (stereo not shown) [Z5000467358] | 151 | 
Cy5-conjugated thalidomide |  | Kd [2]: 4.1 nM; Kd [3]: 13 nM; Kd [4]: 5000 nM
